{"source": "patent US4557930A", "about": "“Anticholesteremic anion exchange resins” (Mitsubishi Petrochemical Co., Ltd., priority 1983, dated 1985)", "tested_on": "descending aorta; plasma lipids", "assay": "In vivo test by rabbit (arteriosclerosis inhibition test): plasma lipids and aorta", "parameters": "species or system rabbit (New Zealand)", "text": "Eight to fourteen male New Zealand species rabbits, weighing about 2.2 Kg, were used per each group. To the first group of rabbits was given 40 g/Kg-body weight/day of a mixture of a feed produced by Oriental Yeast Co. mixed with 0.67% of cholesterol for 12 weeks, and to the rabbits of the second and third groups were further given CR - 1 and Clofibrate, respectively.\nCR - 1 and Clofibrate employed was mixed in the feed at levels of 1.25% and 0.25%, respectively.\nDuring the tests, the plasma lipid concentrations were measured, and after 12 weeks, all the rabbits were sacrificed by bleeding. Descending aorta were subjected to incision and the conditions of arteriosclerosis were observed.", "key": {"[1]": {"conditions": "0.67% cholesterol intake, 6 weeks, CR - 1 1.25%, Clofibrate 0.25% in feed"}, "[2]": {"conditions": "0.67% cholesterol intake, 12 weeks, CR - 1 1.25%, Clofibrate 0.25% in feed"}}, "data": [{"smiles": "CCOC(=O)C(C)(C)Oc1ccc(Cl)cc1", "note": "[Clofibrate]", "values": [{"measurement": "Total plasma: Cholesterol", "setting": "[1]", "result": "1810 ± 124", "unit": "mg/dL"}, {"measurement": "Total plasma: Triglyceride", "setting": "[1]", "result": "337.1 ± 66.1", "unit": "mg/dL"}, {"measurement": "Total plasma: β-Lipoprotein", "setting": "[1]", "result": "5038 ± 450", "unit": "mg/dL"}, {"measurement": "Aorta: Area of blood vessel at arteriosclerosis", "setting": "[2]", "result": "8.0 ± 1.4", "unit": "cm^2"}, {"measurement": "Aorta: Inhibition of arteriosclerosis", "setting": "[2]", "result": 18.0, "unit": "%"}, {"measurement": "Aorta: Total area", "setting": "[2]", "result": "17.7 ± 0.5", "unit": "cm^2"}, {"measurement": "Total plasma: Cholesterol", "setting": "[2]", "result": "1895 ± 117", "unit": "mg/dL"}, {"measurement": "Total plasma: Triglyceride", "setting": "[2]", "result": "336.8 ± 39.7", "unit": "mg/dL"}, {"measurement": "Total plasma: β-Lipoprotein", "setting": "[2]", "result": "4385 ± 574", "unit": "mg/dL"}, {"measurement": "Aorta: Percentage of arteriosclerosis", "setting": "(Area at arteriosclerosis)/(Total blood vessel area) × 100, 0.67% cholesterol intake, 12 weeks", "result": "44.2 ± 7.0", "unit": "%"}]}]}
